Values joined by “and” are separate entries in the source; they are usually repeats but may differ in a detail not shown here. Identical values can stand only once.
Key:
[1] = test system: PGE2; test: Equilibrium in vivo dialysis of faeces with radioimmunoassay of PGE2 (SAZ withdrawal study); details: individual patients randomized to SAZ (tablets 0.5 g; 2 tablets b.i.d.) after raised PGE2; first figure of the cell
From the text: (§1) Equilibrium in vivo dialysis of faeces as well as equilibrium in vivo dialysis of rectum were done in consenting patients fulfilling the entry criteria. Subsequently, SAZ treatment was stopped and the patients were observed free of medication. Evaluation of clinical disease activity, in addition to sigmoidoscopy with rectal biopsies for assessing endoscopic and histologic disease activity, were done at scheduled visits after two weeks, after two, six, and 12 months, and in-between, if indicated by recurrence of colitic symptoms. A relapse was defined as a recurrence of colitic symptoms accompanied by endoscopic signs of inflammation. If a relapse occurred the patient was withdrawn. At the scheduled visits also in vivo dialysis measurements were carried out. […]
Equilibrium in vivo dialysis of faeces was carried out as previously described, by pooling the contents of five swallowed dialysis bags following their intestinal transit (faecal dialysate). These dialysates were analyzed for concentrations of PGE2 (faecal PGE2).
(§2) Prostaglandin E2 was measured as previously described by a radioimmunological method validated by gas chromatograghy mass spectrometry. […]

[2] = test system: ulcerative colitis; details: background statement; cited from earlier work
[3] = test system: PGE2; test: Equilibrium in vivo dialysis of rectum with radioimmunoassay of PGE2 (SAZ withdrawal study); parameters: species or system patients
From the text: as §1
Equilibrium in vivo dialysis of rectum was performed after insertion of a 12-cm-long dialysis bag into the emptied rectum as described above. The bag was left for four hours when it was removed and its contents (rectal dialysate) were analyzed for concentrations of PGE2 (rectal PGE2).
as §2

[4] = test system: inactive ulcerative colitis; test: Double-blind maintenance treatment with SAZ or placebo after rise of PGE2: relapse/remission; type: in vivo, patients
From the text: Patients fulfilling the following entry criteria were candidates for the study: (a) proven UC. […] Patients were considered in remission when symptom-free (i.e., stool frequency 2 x a day, without discharge of blood, pus, or mucus from the rectum), with normal sigmoidoscopic appearance, and with no significant inflammation on rectal biopsy.
as §1

[5] = test system: PGE2; test: Equilibrium in vivo dialysis of rectum with radioimmunoassay of PGE2 (enema trial); parameters: species or system patients; details: median, enema groups irrespective of SAZ (+/-), SAZ line = no enema, with SAZ maintenance
Experimental: The study was carried out as a block-randomized, double-blind trial. Before entry, clinical disease activity was assessed, and equilibrium in vivo dialysis of rectum was performed before the assessment of endoscopic and histologic disease activity. […] Primary stratification was done for patients already on maintenance treatment with SAZ. At day 15 the equilibrium in vivo dialysis of rectum was repeated, and clinical, endoscopic, and histologic activities were reassessed. Patients in complete clinical and endoscopic remission discontinued treatment with enemas, whereas the remainder continued therapy for another 14 days. In all cases equilibrium in vivo dialysis of rectum and assessment of disease activity were repeated at day 29. Withdrawal criteria included intolerance to treatment or deterioration (severe disease, C3) requiring systemic glucocorticoids.
In vivo dialysis of rectum was performed after insertion of a 12-cm-long dialysis bag (volume 4 ml; Visking seamless cellulose tubing 8/32 filled with Rheomacrodex@; Pharmacia, Uppsala, Sweden) containing 10% dextran (mean mol wt 40,000) in saline into the emptied rectum. To obtain equilibrium with the fluid covering the surface of rectal mucosa, the dialysis bag was left for 4 h before its contents were emptied into a test tube, which was stored immediately at -20°C (rectal dialysate) for analysis within 2 wk.
Prostaglandin E2 was measured as previously described in detail (K. Bukhave, J. Rask-Madsen J, 'Prostaglandin E2 in jejunal fluids and its potential diagnostic value for selecting patients with indomethacin-sensitive diarrhoea', 1981 European Journal of Clinical Investigation, 11:191-7) by a radioimmunologic method validated by gas chromatography-mass spectrometry (K. Bukhave, K Green, J. Rask-Madsen, 'Comparison of radioimmunological determinations with gas chromatography mass spectrometry dosage', 1983 Biomedical Mass Spectrometry, 10:265-8). The method included purification by extraction with ethylacetate/cyclo- hexane (1:1) and chromatography on microcolumns of Sephadex LH-20 (Pharmacia AB, Sweden) before performing the radioimmunoassay itself on the eluate fraction containing PGE2.

For O=C(O)c1cc(/N=N/c2ccc(S(=O)(=O)Nc3ccccn3)cc2)ccc1O [SAZ, sulphasalazine], the “Fecal PGE2 levels 6 months after R” value [1] is listed as 0.20 ng/ml and 0.38 ng/ml and 0.43 ng/ml and 0.14/ND ng/ml and 0.32 ng/ml and 0.22 ng/ml, the “patients allergic to SAZ or in other ways intolerant of the drug” value [2] is listed as 10-20% and the PGE2 concentrations ([3]; SAZ group n=6, six months after randomisation) is listed as “decreased toward control levels”. The “Rectal PGE2 levels 6 months after R” value ([3]; individual patients randomized to SAZ (tablets 0.5 g; 2 tablets b.i.d.) after raised PGE2, second figure of the cell) was 0.64 ng/mL and 0.59 ng/mL and 2.11 ng/mL and 0.30 ng/mL and 0.26 ng/mL, the “remission reinstated in relapsing patients by resuming SAZ alone” value ([4]; SAZ 2-3 g/day orally, 14 relapsing patients) was “seven cases” and the “relapse within the six-month treatment period” value ([4]; SAZ 2 g/day group n=6, placebo four of five, p<0.05, Fisher's exact test) was “none of the six patients”. For the same compound, the “Concentrations of PGE2 in rectal lumen” value ([5]; clinical activity 0 (inactive)) was 0.61(n=3) (0.47-2.2) ng/ml, the “Concentrations of PGE2 in rectal lumen” value ([5]; clinical activity 1 (mild)) was 9.4(n=5) (0.35-36) ng/ml and the “Concentrations of PGE2 in rectal lumen” value ([5]; clinical activity 2-3 (moderate-severe)) was 8.5(n=9) (0.32-52) ng/ml. For the same compound, the “Concentrations of PGE2 in rectal lumen” value ([5]; endoscopic activity 0 (inactive)) was 0.61(n=3) (0.47-22) ng/ml, the “Concentrations of PGE2 in rectal lumen” value ([5]; endoscopic activity 1 (mild)) was 3.2(n=3) (0.35-5.6) ng/ml and the “Concentrations of PGE2 in rectal lumen” value ([5]; endoscopic activity 2 (moderate)) was 8.2(n=8) (0.32-36) ng/ml. The “Concentrations of PGE2 in rectal lumen” value ([5]; endoscopic activity 3 (severe)) was 36(n=3) (8.9-52) ng/ml.

Reference: EP0393104B1, “MEASUREMENT OF PGE 2 (PROSTAGLANDIN E 2) LEVELS IN PATIENTS WITH CHRONIC INFLAMMATORY BOWEL DISEASE” (priority 1987, dated 1989)
